System: MPA/DMBA-induced tumours
Assay: MPA/DMBA-induced breast cancer model
Format: in vivo, C57BL/6 mice
Conditions: palpable MPA/DMBA-induced tumours; systemic injection
Description: Medroxyprogesterone acetate (MPA) pellets (50 mg, 90-day release) were implanted subcutaneously into the interscapular area of immunocompetent C57BL/6 mice. Then the animals received 1 mg dimethylbenzantracene (DMBA) administered by oral gavage 6× during 7 weeks. When spontaneous tumours became palpable mice were randomly assigned to receive 0.14 mg/Kg lurbinectedin (Lurbi) alone or in combination with double immune checkpoint blockade with monoclonal antibodies targeting CTLA-4 and PD-1 at day 6, 9 and 12 post treatment (a). The tumour area and overall survival were measured regularly until ethical endpoints were reached (b,c,d). Data were analyzed with TumGrowth (https://github.com/kroemerlab). […]
Six- to eight-week-old female wild-type C57BL/6 and nu/nu mice were obtained from Envigo France (Huntingdon, UK) and were kept in the animal facility at the Gustave Roussy Campus Cancer in a specific pathogen-free and temperature-controlled environment with 12 h day, 12 h night cycles and received food and water ad libitum. […] When tumours became palpable, 0.18 mg/Kg lurbinectedin was injected sequentially once a week intravenously into the tail vein and animal well-being and tumour growth were monitored. […] Animals were monitored and tumour growth documented regularly until end-points were reached. […]

COc1ccc2[nH]c3c(c2c1)CCN[C@]31CS[C@@H]2c3c(OC(C)=O)c(C)c4c(c3[C@H](COC1=O)N1[C@@H]2[C@H]2c3c(cc(C)c(OC)c3O)C[C@@H]([C@@H]1O)N2C)OCO4 [lurbinectedin]
overall survival: increased | tumour growth: significantly reduced
